Laboratory results as given in patent US5962475A, “Substituted benzo(B)thiophene compounds having activity as selective estrogen receptor modulators” (Eli Lilly and Company, priority 1997, dated 1999).
Blank lines part the entries; values can stand above or below the compound they belong to.

Assays:
serum cholesterol = assay: Serum cholesterol in ovariectomized rats, four day oral dosing; assay type: in vivo, Sprague Dawley rats; conditions: for Serum Cholesterol (% decrease OVX): daily for 4 days, vs OVX control
Experimental: (§1) In the examples illustrating the methods, a post-menopausal model was used in which effects of different treatments upon various biological parameters were determined, including serum cholesterol concentration, uterine weight, estrogen receptor binding, uterine eosinophil peroxidase activity, MCF-7 cell proliferation, and bone density.
(§2) Seventy-five day old female Sprague Dawley rats (weight range of 200 to 225 g) were obtained from Charles River Laboratories (Portage, Mich.). The animals were either bilaterally ovariectomized (OVX) or exposed to a sham surgical procedure (Intact) at Charles River Laboratories, and then shipped after one week. Upon arrival, they were housed in metal hanging cages in groups of 3 or 4 per cage and had ad libi tum access to food (calcium content approximately 0.5%) and water for one week. Room temperature was maintained at 22.20°±1.70° C. with a minimum relative humidity of 40%. The photoperiod in the room was 12 hours light and 12 hours dark.
(§3) After a one week acclimation period (therefore, two weeks post-OVX), daily dosing with test compound was initiated. 17a-Ethynyl estradiol (EE2) (Sigma Chemical Co., St. Louis, Mo.), an orally available form of estrogen, or the test compound were given orally, unless otherwise stated, as a suspension in 1% carboxymethyl cellulose or dissolved in 20% β-cyclodextrin. Animals were dosed daily for 4 days. Following the dosing regimen, animals were weighed and anesthetized with a ketamine:xylazine (2:1, v:v) mixture. A blood sample was collected by cardiac puncture. The animals were then sacrificed by asphyxiation with CO2, the uterus was removed through a midline incision, and a wet uterine weight was determined.
Blood samples were allowed to clot at room temperature for 2 hours, and serum was obtained following centrifugation for 10 minutes at 3000 rpm. Serum cholesterol was determined using a Boehringer Mannheim Diagnostics high performance cholesterol assay. Briefly the cholesterol was oxidized to cholest-4-en-3-one and hydrogen peroxide. The hydrogen peroxide was then reacted with phenol and 4-aminophenazone in the presence of peroxidase to produce a p-quinone imine dye, which was read spectrophotemetrically at 500 nm. Cholesterol concentration was then calculated against a standard curve. The entire assay was automated using a Biomek Automated Workstation.
(§4) Data presented in Table 1 below show comparative results among control ovariectomized rats, rats treated with EE2, and rats treated with certain compounds of the present invention. […] This uterine response to estrogen is well recognized in the art.
(§5) The data presented in Table 1 reflect the response of 5 or 6 rats per treatment.

[1] = test system: uterine eosinophil peroxidase activity; assay: Uterine eosinophil peroxidase (EPO) assay in ovariectomized rats, four day dosing; assay type: in vivo, Sprague Dawley rats; design: Uterine EPO (Vmax): unit not given beside the values; conditions: for Uterine EPO (Vmax): daily for 4 days
Experimental: as §1, §2, §3
Uteri were kept at 4° C. until time of enzymatic analysis. The uteri were then homogenized in 50 volumes of 50 mM Tris buffer (pH--8.0) containing 0.005% Triton X-100. Upon addition of 0.01% hydrogen peroxide and 10 mM o-phenylenediamine (final concentrations) in Tris buffer, increase in absorbance was monitored for one minute at 450 nm. The presence of eosinophils in the uterus, as measured by assay of eosinophil peroxidase activity, is an indication of estrogenic activity of a compound. The maximal velocity of a 15 second interval was determined over the initial, linear portion of the reaction curve.
As is expressed in the data below, estrogenicity also was assessed by evaluating the adverse response of eosinophil infiltration into the uterus.
as §5

[2] = test system: ovariectomized (OVX) rats, uterus; assay: Uterine weight in ovariectomized rats, four day oral dosing; assay type: in vivo, Sprague Dawley rats; conditions: for Uterine Weight (% inc. OVX): daily for 4 days, vs OVX control
Experimental: as §1, §2, §3, §4, §5

[3] = test system: MCF-7 breast adenocarcinoma cells; assay: MCF-7 proliferation assay; assay type: cell-based; conditions: Homo sapiens, MCF7; MCF-7 cells, tritiated thymidine pulse after 48 hours with compound; read-out: ED50 (the source's name)
Experimental: MCF-7 breast adenocarcinoma cells (ATCC HTB 22) were maintained in MEM (minimal essential medium, phenol red-free, Sigma, St. Louis, Mo.) supplemented with 10% fetal bovine serum (FBS) (V/V), L-glutamine (2 mM), sodium pyruvate (1 mM), HEPES {(N-[2-hydroxyethyl]piperazine-N'-[2-ethanesulfonic acid]10 mM}, non-essential amino acids and bovine insulin (1 μg/ml) (maintenance medium). Ten days prior to assay, MCF-7 cells were switched to maintenance medium supplemented with 10% dextran coated charcoal stripped fetal bovine serum (DCC-FBS) assay medium) in place of 10% FBS to deplete internal stores of steroids. MCF-7 cells were removed from maintenance flasks using cell dissociation medium (Ca++/Mg++ free HBSS (phenol red-free) supplemented with 10 mM HEPES and 2 mM EDTA). Cells were washed twice with assay medium and adjusted to 80,000 cells/ml. […] Serial dilutions of drugs or DMSO as a diluent control were prepared in assay medium and […] to triplicate microcultures followed by […] assay medium for a final volume of […]. After an additional 48 hours at 37° C. in a 5% CO2 humidified incubator, microcultures were pulsed with tritiated thymidine (1 uCi/well) for 4 hours. Cultures were terminated by freezing at -70° C. for 24 hours followed by thawing and harvesting of microcultures. Samples were counted by liquid scintillation.

MCF-7 Estrogen Receptor = target: T1, MCF-7 Estrogen Receptor (Homo sapiens, UniProt P03372); assay: MCF-7 estrogen receptor binding assay, competition with tritiated 17β-estradiol
T1 construct: protein from MCF-7 lysates; endogenous in cells; host or cells: MCF-7 (lysate)
T1 sequence (P03372 1-595): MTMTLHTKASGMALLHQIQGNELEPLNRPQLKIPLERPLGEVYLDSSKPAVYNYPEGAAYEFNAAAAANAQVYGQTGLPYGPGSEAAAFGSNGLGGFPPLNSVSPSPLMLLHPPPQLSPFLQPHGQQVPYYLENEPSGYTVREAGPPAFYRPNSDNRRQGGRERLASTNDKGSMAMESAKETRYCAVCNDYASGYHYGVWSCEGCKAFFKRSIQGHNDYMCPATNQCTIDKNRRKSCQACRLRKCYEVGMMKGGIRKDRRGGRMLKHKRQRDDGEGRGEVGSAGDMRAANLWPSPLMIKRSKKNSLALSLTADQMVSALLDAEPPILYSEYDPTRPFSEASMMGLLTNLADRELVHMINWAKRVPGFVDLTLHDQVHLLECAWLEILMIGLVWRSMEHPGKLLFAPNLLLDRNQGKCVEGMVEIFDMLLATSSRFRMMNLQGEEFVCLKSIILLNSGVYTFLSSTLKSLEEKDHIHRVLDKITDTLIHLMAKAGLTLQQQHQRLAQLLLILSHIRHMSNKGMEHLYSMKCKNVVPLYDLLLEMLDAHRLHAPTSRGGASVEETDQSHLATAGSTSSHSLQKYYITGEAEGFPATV
Experimental: Binding was allowed to take place for 18 hours at 5-- C., followed by the addition of 0.07 mL of dextran/charcoal and centrifugation to remove non-bound radioligand. Aliquots of supernate containing bound radioligand were mixed with scintillant and counted. Relative binding affinity (RBA) was calculated as: [formula]

Compound: C#C[C@]1(O)CC[C@H]2[C@@H]3CCc4cc(O)ccc4[C@H]3CC[C@@]21C [Ethynyl estradiol, 17a-Ethynyl estradiol, reference compound]
Serum Cholesterol (% decrease OVX) (serum cholesterol; 0.1 mg/kg PO): 80.3%
serum cholesterol, in words (serum cholesterol; orally, 0.1 mg/Kg/day): decrease in serum cholesterol
Uterine EPO (Vmax) ([1]; 0.1 mg/kg PO): 123.9
eosinophil infiltration into the uterus, in words ([1]; ovariectomized rats, by assay of eosinophil peroxidase activity): substantial, expected increase in eosinophil infiltration
Uterine Weight (% inc. OVX) ([2]; 0.1 mg/kg PO): 144.1%
action on the uterus / uterine weight, in words ([2]; orally, 0.1 mg/Kg/day): marked stimulatory action on the uterus

Compound: O=C(c1ccc(NCCN2CCCCC2)cc1)c1c(-c2ccc(O)cc2)sc2cc(O)ccc12 [Example 2]
IC50 [3]: 0.002 µM
Serum Cholesterol (% decrease OVX) (serum cholesterol; 0.1 mg/kg PO): -0.5%
Serum Cholesterol (% decrease OVX) (serum cholesterol; 1 mg/kg PO): 13.6%
Serum Cholesterol (% decrease OVX) (serum cholesterol; 10 mg/kg PO): 42.4%
Uterine EPO (Vmax) ([1]; 0.1 mg/kg PO): 1.8
Uterine EPO (Vmax) ([1]; 1 mg/kg PO): 2.4
Uterine EPO (Vmax) ([1]; 10 mg/kg PO): 2.1
Uterine Weight (% inc. OVX) ([2]; 0.1 mg/kg PO): -5.0%
Uterine Weight (% inc. OVX) ([2]; 1 mg/kg PO): 15.8%
Uterine Weight (% inc. OVX) ([2]; 10 mg/kg PO): 35.6%

Compound: O=C(c1ccc(SCCN2CCCCC2)cc1)c1c(-c2ccc(O)cc2)sc2cc(O)ccc12 [Example 4, 6-hydroxy-2-(4-hydroxyphenyl)-3-[4-(2-(piperidin-1-yl)ethylthio)benzoyl]-benzo[b]thiophene]
IC50 [3]: 0.0009 µM
Serum Cholesterol (% decrease OVX) (serum cholesterol; 0.1 mg/kg PO): -16.6%
Serum Cholesterol (% decrease OVX) (serum cholesterol; 1 mg/kg PO): 37.5%
Serum Cholesterol (% decrease OVX) (serum cholesterol; 10 mg/kg PO): 47.5%
Uterine EPO (Vmax) ([1]; 0.1 mg/kg PO): 3.3
Uterine EPO (Vmax) ([1]; 1 mg/kg PO): 1.2
Uterine EPO (Vmax) ([1]; 10 mg/kg PO): 1.8
Uterine Weight (% inc. OVX) ([2]; 0.1 mg/kg PO): 3.5%
Uterine Weight (% inc. OVX) ([2]; 1 mg/kg PO): 23.1%
Uterine Weight (% inc. OVX) ([2]; 10 mg/kg PO): 16.7%

IC50 [3]: 0.01 µM
Relative binding affinity (RBA) (MCF-7 Estrogen Receptor): 0.19
Compound: CN(CCN1CCCCC1)c1ccc(C(=O)c2c(-c3ccc(O)cc3)sc3cc(O)ccc23)cc1 [Example 6, 6-hydroxy-2-(4-hydroxyphenyl)-3-[4-(N-methyl-N-2-(piperidin-1-yl)ethylamino)benzoyl]-benzo[b]thiophene]
Serum Cholesterol (% decrease OVX) (serum cholesterol; 0.1 mg/kg PO): 4.7%
Serum Cholesterol (% decrease OVX) (serum cholesterol; 1 mg/kg PO): 42.0%
Serum Cholesterol (% decrease OVX) (serum cholesterol; 10 mg/kg PO): 65.1%
Uterine EPO (Vmax) ([1]; 0.1 mg/kg PO): 4.5
Uterine EPO (Vmax) ([1]; 1 mg/kg PO): 3.3
Uterine EPO (Vmax) ([1]; 10 mg/kg PO): 6.0
Uterine Weight (% inc. OVX) ([2]; 0.1 mg/kg PO): 17.1%
Uterine Weight (% inc. OVX) ([2]; 1 mg/kg PO): 45.4%
Uterine Weight (% inc. OVX) ([2]; 10 mg/kg PO): 43.0%

IC50 [3]: 1 µM
Relative binding affinity (RBA) (MCF-7 Estrogen Receptor): < 0.002
Compound: COc1ccc(-c2sc3cc(OC)ccc3c2C(=O)c2ccc(S(=O)(=O)CCN3CCCCC3)cc2)cc1 [Example 7, 6-methoxy-2-(4-methoxyphenyl)-3-[4-(2-(piperidin-1-yl)ethylsulfonyl)benzoyl]benzo[b]thiophene]
Serum Cholesterol (% decrease OVX) (serum cholesterol; 0.1 mg/kg PO): -4.4%
Serum Cholesterol (% decrease OVX) (serum cholesterol; 1 mg/kg PO): 12.0%
Serum Cholesterol (% decrease OVX) (serum cholesterol; 10 mg/kg PO): 28.7%
Uterine EPO (Vmax) ([1]; 0.1 mg/kg PO): 7.5
Uterine EPO (Vmax) ([1]; 1 mg/kg PO): 4.8
Uterine EPO (Vmax) ([1]; 10 mg/kg PO): 8.4
Uterine Weight (% inc. OVX) ([2]; 0.1 mg/kg PO): 26.4%
Uterine Weight (% inc. OVX) ([2]; 1 mg/kg PO): 18.6%
Uterine Weight (% inc. OVX) ([2]; 10 mg/kg PO): 48.4%

Compound: O=C(c1ccc(S(=O)(=O)CCN2CCCCC2)cc1)c1c(-c2ccc(O)cc2)sc2cc(O)ccc12 [Example 8, 6-hydroxy-2-(4-hydroxyphenyl)-3-[4-(2-(piperidin-1-yl)ethylsulfonyl)benzoyl]benzo[b]thiophene]
IC50 [3]: 0.03 µM
Serum Cholesterol (% decrease OVX) (serum cholesterol; 0.1 mg/kg PO): -23.3%
Serum Cholesterol (% decrease OVX) (serum cholesterol; 1 mg/kg PO): 17.2%
Serum Cholesterol (% decrease OVX) (serum cholesterol; 10 mg/kg PO): 62.3%
Uterine EPO (Vmax) ([1]; 0.1 mg/kg PO): 4.8
Uterine EPO (Vmax) ([1]; 1 mg/kg PO): 13.5
Uterine EPO (Vmax) ([1]; 10 mg/kg PO): 23.1
Uterine Weight (% inc. OVX) ([2]; 0.1 mg/kg PO): 16.2%
Uterine Weight (% inc. OVX) ([2]; 1 mg/kg PO): 66.9%
Uterine Weight (% inc. OVX) ([2]; 10 mg/kg PO): 75.0%
